Results published in patent US20070049593A1 (priority 2004, published 2007).
Structures can show the parent of a compound that is named as a salt.

These molecules were tested against T1, HCV polymerase (Hepatitis C virus genotype 1b, UniProt P26663) (assay: biochemical). Details: not given.
T1 construct: a region encoding NS5B (J Virol 1991 March, 65(3), 1105-13, 544 amino acids after deletion of 47 amino acids on the C-terminal); 6xHis (C); made in house; host or cells: Escherichia coli
Parameters: species or system HCV BK strain
In short: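 His-tagged NS5B (BK strain, 47-aa C-terminal deletion, E. coli-expressed) at 0.5 μg/ml copied 5 μg/ml run-off RNA bearing the HCV 3′ UTR with 2 μM UTP plus [3H]UTP, 50 μM ATP/GTP, in pH 7.5 Tris with 5 mM MgCl2, 25 °C, 90 min. TCA-precipitated RNA was counted and IC50 calculated.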

T1 sequence (P26663 2420-2963): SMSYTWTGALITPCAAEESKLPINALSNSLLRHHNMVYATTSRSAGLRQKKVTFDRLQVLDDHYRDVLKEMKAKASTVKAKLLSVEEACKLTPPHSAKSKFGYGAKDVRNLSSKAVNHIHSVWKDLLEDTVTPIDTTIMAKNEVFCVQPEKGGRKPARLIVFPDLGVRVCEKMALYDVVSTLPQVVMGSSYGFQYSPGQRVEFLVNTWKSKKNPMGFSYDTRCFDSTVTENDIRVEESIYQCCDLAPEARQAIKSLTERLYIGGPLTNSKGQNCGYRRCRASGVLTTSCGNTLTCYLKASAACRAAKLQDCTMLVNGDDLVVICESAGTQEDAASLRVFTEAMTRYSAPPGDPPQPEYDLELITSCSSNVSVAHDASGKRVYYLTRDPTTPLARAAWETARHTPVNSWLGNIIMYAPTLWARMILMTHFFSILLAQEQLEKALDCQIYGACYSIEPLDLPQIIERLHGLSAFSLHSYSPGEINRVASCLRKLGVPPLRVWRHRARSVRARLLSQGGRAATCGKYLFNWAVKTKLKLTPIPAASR

Compound	IC50
CN(CCN1CCn2c(c(C3CCCCC3)c3ccc(C(=O)O)cc32)-c2ccccc21)C1CCN(S(C)(=O)=O)CC1 [Example 1-280, 13-cyclohexyl-5-{2-[N-(1-methanesulfonylpiperidin-4-yl)-N-methylamino]ethyl}-6,7-dihydro-5H-benzo[5,6][1,4]diazepino[7,1-a]indole-10-carboxylic acid]	< 100 nM
COC(=O)N1CCC(N(C)CCN2CCn3c(c(C4CCCCC4)c4ccc(C(=O)O)cc43)-c3ccccc32)CC1 [Example 1-281, 13-cyclohexyl-5-{2-[N-(1-methoxycarbonylpiperidin-4-yl)-N-methylamino]ethyl}-6,7-dihydro-5H-benzo[5,6][1,4]diazepino[7,1-a]indole-10-carboxylic acid monohydrochloride]	< 100 nM
CN1CCC(N(C)CCN2CCn3c(c(C4CCCCC4)c4ccc(C(=O)O)cc43)-c3ccccc32)CC1 [Example 1-282, 13-cyclohexyl-5-{2-[N-methyl-N-(1-methylpiperidin-4-yl)amino]ethyl}-6,7-dihydro-5H-benzo[5,6][1,4]diazepino[7,1-a]indole-10-carboxylic acid dihydrochloride]	< 100 nM
CN(CCN1CCn2c(c(C3CCCCC3)c3ccc(C(=O)O)cc32)-c2ccccc21)C1CCOCC1 [Example 1-283, 13-cyclohexyl-5-{2-[N-methyl-N-(tetrahydropyran-4-yl)amino]ethyl}-6,7-dihydro-5H-benzo[5,6][1,4]diazepino[7,1-a]indole-10-carboxylic acid]	< 100 nM
CN1CCC(N(C)CCN2CCn3c(c(C4CCCCC4)c4ccc(C(=O)O)cc43)-c3ccccc32)C1 (centres unmarked) [Example 1-284, 13-cyclohexyl-5-{2-[N-methyl-N-(1-methylpyrrolidin-3-yl)amino]ethyl}-6,7-dihydro-5H-benzo[5,6][1,4]diazepino[7,1-a]indole-10-carboxylic acid dihydrochloride]	< 100 nM
CN(CCN1CCn2c(c(C3CCCCC3)c3ccc(C(=O)O)cc32)-c2ccccc21)C1CCNC1 (centres unmarked) [Example 1-285, 13-cyclohexyl-5-{2-[N-methyl-N-(pyrrolidin-3-yl)amino]ethyl}-6,7-dihydro-5H-benzo[5,6][1,4]diazepino[7,1-a]indole-10-carboxylic acid dihydrochloride]	< 100 nM
CCN1CCCN(CCN2CCn3c(c(C4CCCCC4)c4ccc(C(=O)O)cc43)-c3ccccc32)CC1 [Example 1-286, 13-cyclohexyl-5-[2-(4-ethyl-1,4-diazepan-1-yl)ethyl]-6,7-dihydro-5H-benzo[5,6][1,4]diazepino[7,1-a]indole-10-carboxylic acid trihydrochloride]	< 100 nM
Cc1ccc2c(c1)N(CCC1CCCCN1C)CCn1c-2c(C2CCCCC2)c2ccc(C(=O)O)cc21 (centres unmarked) [Example 1-287, 13-cyclohexyl-3-methyl-5-[2-(1-methylpiperidin-2-yl)ethyl]-6,7-dihydro-5H-benzo[5,6][1,4]diazepino[7,1-a]indole-10-carboxylic acid dihydrochloride]	< 100 nM
CCN1CCCCC1CCN1CCn2c(c(C3CCCCC3)c3ccc(C(=O)O)cc32)-c2ccc(C)cc21 (centres unmarked) [Example 1-288, 13-cyclohexyl-5-[2-(1-ethylpiperidin-2-yl)ethyl]-3-methyl-6,7-dihydro-5H-benzo[5,6][1,4]diazepino[7,1-a]indole-10-carboxylic acid dihydrochloride]	< 100 nM
CSc1ccc2c(c1)N(CCN1CCCCCC1)CCn1c-2c(C2CCCCC2)c2ccc(C(=O)O)cc21 [Example 1-289, 5-[2-(azepan-1-yl)ethyl]-13-cyclohexyl-3-methylsulfanyl-6,7-dihydro-5H-benzo[5,6][1,4]diazepino[7,1-a]indole-10-carboxylic acid dihydrochloride]	< 100 nM
CCC1CN(CCN2CCn3c(c(C4CCCCC4)c4ccc(C(=O)O)cc43)-c3ccc(Cl)cc32)CCO1 (centres unmarked) [Example 1-290, 3-chloro-13-cyclohexyl-5-[2-(2-ethylmorpholin-4-yl)ethyl]-6,7-dihydro-5H-benzo[5,6][1,4]diazepino[7,1-a]indole-10-carboxylic acid dihydrochloride]	< 100 nM
CCC1CN(CCN2CCn3c(c(C4CCCCC4)c4ccc(C(=O)O)cc43)-c3ccc(C)cc32)CCO1 (centres unmarked) [Example 1-291, 13-cyclohexyl-5-[2-(2-ethylmorpholin-4-yl)ethyl]-3-methyl-6,7-dihydro-5H-benzo[5,6][1,4]diazepino[7,1-a]indole-10-carboxylic acid dihydrochloride]	< 100 nM
CCC1COCCN1CCN1CCn2c(c(C3CCCCC3)c3ccc(C(=O)O)cc32)-c2ccc(C)cc21 (centres unmarked) [Example 1-292, 13-cyclohexyl-5-[2-(3-ethylmorpholin-4-yl)ethyl]-3-methyl-6,7-dihydro-5H-benzo[5,6][1,4]diazepino[7,1-a]indole-10-carboxylic acid dihydrochloride]	< 100 nM
COCC1CCCN(CCN2CCn3c(c(C4CCCCC4)c4ccc(C(=O)O)cc43)-c3ccc(Cl)cc32)C1 (centres unmarked) [Example 1-293, 3-chloro-13-cyclohexyl-5-[2-(3-methoxymethylpiperidin-1-yl)ethyl]-6,7-dihydro-5H-benzo[5,6][1,4]diazepino[7,1-a]indole-10-carboxylic acid dihydrochloride]	< 100 nM
CCc1ccc2c(c1)N(CCN1CCCCC1)CCn1c-2c(C2CCCCC2)c2ccc(C(=O)O)cc21 [Example 1-295, 13-cyclohexyl-3-ethyl-5-[2-(piperidin-1-yl)ethyl]-6,7-dihydro-5H-benzo[5,6][1,4]diazepino[7,1-a]indole-10-carboxylic acid dihydrochloride]	< 100 nM
CC(C)c1ccc2c(c1)N(CCN1CCCCC1)CCn1c-2c(C2CCCCC2)c2ccc(C(=O)O)cc21 [Example 1-296, 13-cyclohexyl-3-isopropyl-5-[2-(piperidin-1-yl)ethyl]-6,7-dihydro-5H-benzo[5,6][1,4]diazepino[7,1-a]indole-10-carboxylic acid dihydrochloride]	< 100 nM
CSc1ccc2c(c1)N(CCCN1CCCCC1)CCn1c-2c(C2CCCCC2)c2ccc(C(=O)O)cc21 [Example 1-297, 13-cyclohexyl-3-methylsulfanyl-5-[3-(piperidin-1-yl)propyl]-6,7-dihydro-5H-benzo[5,6][1,4]diazepino[7,1-a]indole-10-carboxylic acid dihydrochloride]	< 100 nM
Cc1ccc2c(c1)N(CCCN1CCCCC1)CCn1c-2c(C2CCCCC2)c2ccc(C(=O)O)cc21 [Example 1-298, 13-cyclohexyl-3-methyl-5-[3-(piperidin-1-yl)propyl]-6,7-dihydro-5H-benzo[5,6][1,4]diazepino[7,1-a]indole-10-carboxylic acid dihydrochloride]	< 100 nM
Cc1ccc2c(c1)N(CCCN1CCCC1)CCn1c-2c(C2CCCCC2)c2ccc(C(=O)O)cc21 [Example 1-299, 13-cyclohexyl-3-methyl-5-[3-(pyrrolidin-1-yl)propyl]-6,7-dihydro-5H-benzo[5,6][1,4]diazepino[7,1-a]indole-10-carboxylic acid dihydrochloride]	< 100 nM
Cc1ccc2c(c1)N(CCCN1CCCCCC1)CCn1c-2c(C2CCCCC2)c2ccc(C(=O)O)cc21 [Example 1-300, 5-[3-(azepan-1-yl)propyl]-13-cyclohexyl-3-methyl-6,7-dihydro-5H-benzo[5,6][1,4]diazepino[7,1-a]indole-10-carboxylic acid dihydrochloride]	< 100 nM
Cc1ccc2c(c1)N(CCCN(C)C)CCn1c-2c(C2CCCCC2)c2ccc(C(=O)O)cc21 [Example 1-301, 13-cyclohexyl-5-(3-dimethylaminopropyl)-3-methyl-6,7-dihydro-5H-benzo[5,6][1,4]diazepino[7,1-a]indole-10-carboxylic acid dihydrochloride]	< 100 nM
CCN(CC)CCCN1CCn2c(c(C3CCCCC3)c3ccc(C(=O)O)cc32)-c2ccc(Cl)cc21 [Example 1-302, 3-chloro-13-cyclohexyl-5-(3-diethylaminopropyl)-6,7-dihydro-5H-benzo[5,6][1,4]diazepino[7,1-a]indole-10-carboxylic acid dihydrochloride]	< 100 nM
CSc1ccc2c(c1)N(CCN1CCCC1)CCn1c-2c(C2CCCCC2)c2ccc(C(=O)O)cc21 [Example 1-303, 13-cyclohexyl-3-methylsulfanyl-5-[2-(pyrrolidin-1-yl)ethyl]-6,7-dihydro-5H-benzo[5,6][1,4]diazepino[7,1-a]indole-10-carboxylic acid dihydrochloride]	< 100 nM
COCC1CCCCN1CCN1CCn2c(c(C3CCCCC3)c3ccc(C(=O)O)cc32)-c2ccc(Cl)cc21 (centres unmarked) [Example 1-304, 3-chloro-13-cyclohexyl-5-[2-(2-methoxymethylpiperidin-1-yl)ethyl]-6,7-dihydro-5H-benzo[5,6][1,4]diazepino[7,1-a]indole-10-carboxylic acid dihydrochloride]	< 100 nM
COCC1CCCCN1CCN1CCn2c(c(C3CCCCC3)c3ccc(C(=O)O)cc32)-c2ccc(C)cc21 (centres unmarked) [Example 1-305, 13-cyclohexyl-5-[2-(2-methoxymethylpiperidin-1-yl)ethyl]-3-methyl-6,7-dihydro-5H-benzo[5,6][1,4]diazepino[7,1-a]indole-10-carboxylic acid dihydrochloride]	< 100 nM

Same assay, conditions: 25° C., 90 min; [5,6-3H]UTP incorporation into RNA; read-out: HCV polymerase inhibitory activity IC50

Compound	IC50
COCC1CCCN(CCN2CCn3c(c(C4CCCCC4)c4ccc(C(=O)O)cc43)-c3ccc(C)cc32)C1 (centres unmarked) [Example 1-294, 13-cyclohexyl-5-[2-(3-methoxymethylpiperidin-1-yl)ethyl]-3-methyl-6,7-dihydro-5H-benzo[5,6][1,4]diazepino[7,1-a]indole-10-carboxylic acid dihydrochloride]	< 100 nM
